How the values were obtained:
Type in all cases: cell-based, Influenza virus A/Udorn/72
A/M2-V27A/L38F = A/M2-V27A/L38F (Influenza A virus, UniProt P0DOF5, L38F/V27A)
A/M2-V27A = A/M2-V27A (Influenza A virus, UniProt P0DOF5, V27A); details: for inhibition of the mutant: 100 µM
A/M2-V27G = A/M2-V27G (Influenza A virus, UniProt P0DOF5, V27G)
A/M2-G34E = A/M2-G34E (Influenza A virus, UniProt P0DOF5, G34E)
A/M2-S31N = A/M2-S31N (Influenza A virus, UniProt P0DOF5, S31N)
A/M2-A30T = A/M2-A30T (Influenza A virus, UniProt P0DOF5, A30T)
A/M2-L26F = A/M2-L26F (Influenza A virus, UniProt P0DOF5, L26F)

In the case of NC12CC3CC(CC(C3)C1)C2 [Amantadine, amantadine], the “sensitivity of the double mutant channel” value (A/M2-V27A/L38F) is reported as “not sensitive” and the “inhibition of the mutant” value (A/M2-V27A) is reported as “less than 10%”.

With C1CCC2(CC1)CCN(C1=NCCN1)CC2 [BL-1743, 2-[3-azaspiro([5],[5])undecanol]-2-imidazoline] the “sensitivity of the double mutant channel” value (A/M2-V27A/L38F) was “not sensitive”, the “% remaining activity after application of 100 μM compound” value (from here on “% remaining activity after application”) (A/M2-V27G) was 82.9±9.3% and the “% remaining activity after application” value (A/M2-G34E) was 89.8±6.9%. For the same molecule, the “% remaining activity after application” value (A/M2-S31N) was 100±0.67%, the IC50 (A/M2-S31N) was greater than 10 mM and the “% remaining activity after application” value (A/M2-A30T) was 102±2.3%. For the same molecule, the “% remaining activity after application” value (A/M2-L26F) was 89.2±4.8%, the IC50 (A/M2-L26F) was greater than 10 mM and the “% remaining activity after application” value (A/M2-V27A) was 97.4±1.8%. The IC50 (A/M2-V27A) was greater than 10 mM and the “inhibition of the mutant” value (A/M2-V27A) was “less than 10%”.

In the case of NC1CCC2(CCCCC2)CC1 [Compound 8, spiro[5.5]undecan-3-amine], the “% remaining activity after application” value (A/M2-V27G) is reported as 87.9±6.1%, the “% remaining activity after application” value (A/M2-S31N) is reported as 99.1±0.9% and the “inhibition of the mutant” value (A/M2-S31N) is reported as “little inhibition”. The “% remaining activity after application” value (A/M2-A30T) was 98.1±7.0%, the “% remaining activity after application” value (A/M2-L26F) was 32.4±3.3% and the “% remaining activity after application” value (A/M2-V27A) was 46.6±6.6%.

From paper PMC2794939 (Biochemistry, 2009)
